Earlier results on two molecules are cited in PMC4955775 (Bioorganic & medicinal chemistry letters, 2016).

[ ]: non-standard residue; d: D form. Dmt = Cc1cc(O)cc(C)c1C[C@H](N)C(=O)O; Tic = O=C(O)[C@@H]1Cc2ccccc2CN1

As for `Cc1cc(O)cc(C)c1C[C@H](N)C(=O)N[C@H](CCCNC(=N)N)C(=O)N[C@@H](Cc1ccccc1)C(=O)N[C@@H](CCCCN)C(N)=O` [Compound 5, H-Dmt-D-Arg-Phe-Lys-NH2], the “duration of the antinociceptive effect, times longer than morphine” value was 4 times.

For H-[Dmt][Tic]FF-NH2 [DIPP-NH2], the “fold increased binding affinity at δ receptor compared to TIPP-NH2” value in the series with δ receptor is reported as 25 fold. For the same molecule, the “fold increased binding affinity at μ receptor compared to TIPP-NH2” value in the series on μ receptor is reported as 65 fold.
